Experimental data: patent US8759331B2, “X-ray and gamma-photon activable organic compounds, their preparation and their uses” (Centre National de la Recherche Scientifique, priority 2010, dated 2014)
Entries after “also recorded” stand apart in the source; their conditions may differ.

What was measured:
[1] = photolysis under one-photon (UV) irradiation at 366 nm, followed by HPLC/LC-MS; format: physicochemical; conditions: 366 nm UV irradiation, physiological conditions / aqueous buffer pH 7
Experimental: The photochemical efficiency of any chromophores is determined by the extinction coefficient (ε) and the quantum yield (Qu) that is characteristic of the observed photochemical event of the chromophore. The product of these quantities (εQu) characterizes the efficiency of the event such as fluorescence or chemical transformation, for example by the incident light.
The photolysis at 366 nm of compound 5 was monitored by the disappearance of the caged hydrocinnamate 5 and by the appearance of the compounds 6 and 7, by using liquid chromatography (LC) or liquid-chromatography-mass spectrometry (LC-MS) techniques. […] In contrast, compound 4 was inert under UV irradiation at 366 nm.
Samples were prepared in c=0.1 mM concentration in aqueous TRIS buffer (pH=7). An aliquot (1 mL) of this solution was irradiated at 366 nm (ε366=3000 M^−1·cm^−1) in a 1 mL quartz cuvette. The evolution of the photolysis was followed by HPLC using C-18 reverse phase chromatography (XTerra, eluents: methanol/HCO2H (0.1% aq), H2O/HCO2H (0.1% aq) detection at 260 and 320 nm).

[2] = radiolysis under X-ray irradiation (17.5 keV), followed by HPLC; format: physicochemical; conditions: soft X-ray irradiation 17.5 keV
Experimental: The radiolysis was followed either by the diminution of the caged compound 5, or by the increasing of the photo-products 6 and 7. […] The photo-fragmentation follows a first order kinetic with a time constant of 4.7×10^−3 min^−1.
The evolution of the radiolysis was followed by HPLC using C-18 reverse phase chromatography (XTerra, eluents: methanol/HCO2H (0.1% aq), H2O/HCO2H (0.1% aq) detection at 260 and 320 nm).

SMILES | photolysis under near UV irradiation (366 nm) [1] | photo-fragmentation under X-ray irradiation [2]
CC(C)(C)OC(=O)N1CCN(c2ccc3ccc(COC(=O)CCc4ccccc4)nc3c2)CC1 [compound 3] | prone to photolysis | no detectable photo-fragmentation; also recorded: no traces of photo-fragmentation
O=C(CCc1ccccc1)OCc1ccc2ccc(N3CCNCC3)cc2n1 [compound 4] | inert | no detectable photo-fragmentation; also recorded: no traces of photo-fragmentation
